This is an account of results in patent publication US10913781B2, “Pepducin design and use” (Tufts Medical Center, Inc., priority 2011, dated 2021).

Test [1] has as its target T1, PAR1 (Homo sapiens, UniProt P25116).
T1 sequence (P25116 22-425): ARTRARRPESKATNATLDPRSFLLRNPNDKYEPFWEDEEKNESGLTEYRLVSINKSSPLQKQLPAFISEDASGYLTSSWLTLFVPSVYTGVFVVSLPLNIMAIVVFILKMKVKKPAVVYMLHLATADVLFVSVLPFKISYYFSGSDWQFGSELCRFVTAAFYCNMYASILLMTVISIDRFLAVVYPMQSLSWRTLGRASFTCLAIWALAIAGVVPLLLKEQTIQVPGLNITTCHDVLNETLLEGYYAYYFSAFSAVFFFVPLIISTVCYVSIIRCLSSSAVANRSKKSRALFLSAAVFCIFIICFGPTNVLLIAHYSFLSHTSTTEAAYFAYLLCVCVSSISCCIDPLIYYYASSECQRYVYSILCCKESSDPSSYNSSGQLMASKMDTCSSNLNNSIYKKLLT
The experiment in a line: Human platelet Ca2+ flux stimulated with SFLLRN. The test is classed as cell-based. Set-up: endogenous in cells; host or cells: A549, HOP62, H1299, H522, H226, HOP92 lung carcinoma lines. To be noted: human platelets. From the text:
FIG. 8 illustrates data that show membrane-tethered PAR1-i3 and i1 pepducins block Ca^2+ flux and migration. (A): Model of PAR1 based on the […] structure of rhodopsin from Swift et al., 2006. Protease cleaved receptor results in generation of a new tethered ligand. The topologic arrangement of the […] to i4 loops and G proteins are illustrated. Schematic diagram of palmitoylated PAR1 i3 and i1 pepducins and their amino acid sequence composition are shown. (B): Effect of PAR1 pepducins on human platelets Ca^2+ flux. Platelets were preincubated with indicated concentrations of pepducins and stimulated with SFLLRN. Effect of blockade is expressed as the percentage of full Ca^2+ signal generated with SFLLRN in the absence of inhibitors. (C): Migration of A549 cells toward 0.3 nmol/L thrombin or 10 μmol/L […] in the presence or absence of 3 μmol/L P1pal-7, P1pal-10S, or P1pal-i1-11 after 18 hours. […] Cell migration is expressed as fold migration of ligand-mediated migration divided by basal migration.
First, it had been previously shown that PAR1 strongly couples to Gq in human platelets as assessed by Ca^++ signaling. In order to determine effect of i1 and i3 pepducins on PAR1 mediated Gq-PLCβ-lnsP3 signaling, human platelets were pretreated with PAR1 pepducins and stimulated with SFLLRN, before the rate of Ca^++ flux was measured.

Another test deals with PAR2 (Homo sapiens, UniProt P55085). The experiment in a line: Agonist | (%)^‡. Set-up: SW620 colon adenocarcinoma cells that endogenously express PAR2; endogenous in cells; host or cells: SW620 (in A7 the SW620 cells were additionally stably transfected with PAR1).
The next test addresses T2, PAR4 (Homo sapiens, UniProt Q96RI0).
T2 sequence (Q96RI0 18-385): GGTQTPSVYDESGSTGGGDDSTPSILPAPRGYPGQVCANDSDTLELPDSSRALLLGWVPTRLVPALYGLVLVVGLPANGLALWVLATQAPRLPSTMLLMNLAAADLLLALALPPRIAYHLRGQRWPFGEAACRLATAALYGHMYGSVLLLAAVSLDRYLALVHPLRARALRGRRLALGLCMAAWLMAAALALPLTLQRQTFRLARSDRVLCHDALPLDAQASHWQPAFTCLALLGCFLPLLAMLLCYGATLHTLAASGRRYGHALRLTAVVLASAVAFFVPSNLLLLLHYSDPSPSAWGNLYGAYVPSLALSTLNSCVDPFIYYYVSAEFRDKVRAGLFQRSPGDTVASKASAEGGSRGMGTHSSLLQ
Description: Human neutrophil chemotaxis to AYPGKF. The test is classed as cell-based. Also noted: endogenous in cells; host or cells: human peripheral blood neutrophils. Particulars: 100 μM AYPGKF. The protocol:
(A) Human neutrophils (n=4 normal volunteers) were analyzed for surface expression of human PAR1, PAR2, and PAR4 by flow cytometry with PAR-specific antibodies. […] Chemotaxis index is the ratio of directed versus random migration over 30 min through a 5-μm pore filter.
P2pal-18S had no effect on PAR1-dependent platelet aggregation (FIG. 5A). Neither P2pal-18S nor P2pal-14GQ caused membrane disruption or apoptosis as assessed by propidium iodide uptake in SW620 cells with up to 30 μM concentrations of pepducin (FIG. 5B).

Test [2] deals with T1, PAR1. The experiment in a line: Calcium flux in SW620 cells stably transfected with PAR1, TFLLRN stimulus. The test is classed as cell-based. To be noted: 30 μM TFLLRN. The protocol:
(A) PAR2 antagonist pepducins P2pal-18S and P2pal-14GQ inhibit calcium flux induced by PAR2 (SLIGRL) (SEQ ID NO:4) but not PAR1 (TFLLRN) (SEQ ID NO:2) agonists. SW620 cells were stably transfected with PAR1 and pretreated for 1 min with various concentrations of P2pal-18S or P2pal-14GQ and then stimulated with 30 μM PAR agonist. […] Cells were stimulated with 1 μM TFLLRN (SEQ ID NO:2), 1 μM SLIGRL (SEQ ID NO:4) or 100 μM AYPGKF (SEQ ID NO:5) and [^3H]-InsP formation measured over 30 min. (C) SW620 cells were treated with the indicated concentrations of P2pal-18S or P2pal-14GQ in the upper well of an 8-μm pore Boyden chamber and allowed to migrate for 18 h towards 10 μM of the PAR2 specific agonist SLIGRL in the lower chamber. The migration to RPMI/0.1% FBS represents random migration. (D) Migration of HEK cells transiently transfected with PAR2 (wild-type, WT), or PAR2-R36A/PAR2-RQ toward chemotactic gradients of 30 nM trypsin in the absence or presence of the indicated concentration of P2pal-18S for 18 h in a transwell apparatus ([…]). Data (n=2-4) are mean±SEM. *, P<0.05 and **, P<0.005.

Peptide text beside a SMILES is read from it. * marks the point of attachment. Palmitoyl = CCCCCCCCCCCCCCCC(=O)*

Sequence of PAR2 (P55085 26-397 limits assumed): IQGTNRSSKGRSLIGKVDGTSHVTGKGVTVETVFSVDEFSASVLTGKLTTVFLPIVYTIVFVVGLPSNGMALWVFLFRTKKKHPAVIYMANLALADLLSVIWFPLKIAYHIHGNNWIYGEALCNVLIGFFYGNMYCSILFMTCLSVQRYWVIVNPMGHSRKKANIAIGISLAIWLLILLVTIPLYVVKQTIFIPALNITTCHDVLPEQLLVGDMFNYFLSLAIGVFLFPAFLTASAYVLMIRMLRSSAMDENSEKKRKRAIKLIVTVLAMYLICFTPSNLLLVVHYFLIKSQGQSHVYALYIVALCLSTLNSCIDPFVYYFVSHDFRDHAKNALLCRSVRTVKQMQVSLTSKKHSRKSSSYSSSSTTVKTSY

Take `CCCCCCCCCCCCCCCC(=O)N[C@H](C(=O)N[C@@H](CC(C)C)C(=O)N[C@@H](CCCCN)C(=O)N[C@@H](CCSC)C(=O)N[C@@H](CCCCN)C(=O)N[C@H](C(=O)N[C@@H](CCCCN)C(=O)N[C@@H](CCCCN)C(=O)N1CCC[C@H]1C(=O)N[C@@H](C)C(=O)N[C@H](C(N)=O)C(C)C)C(C)C)[C@@H](C)CC` [P1pal-i1-11] (Palmitoyl-ILKMKVKKPAV-NH2): the “Extent of inhibition of calcium mobilization” value at PAR1 [1] was “less effective in inhibiting the Gq mediated calcium signal”.

`CCCCCCCCCCCCCCCC(=O)N[C@@H](CCCNC(=N)N)C(=O)N[C@@H](CO)C(=O)N[C@@H](CO)C(=O)N[C@@H](C)C(=O)N[C@@H](CCSC)C(=O)N[C@@H](CC(=O)O)C(=O)N[C@@H](CCC(=O)O)C(=O)N[C@@H](CC(N)=O)C(=O)N[C@@H](CO)C(=O)N[C@@H](CCC(=O)O)C(=O)N[C@@H](CCCCN)C(=O)N[C@@H](CCCCN)C(=O)N[C@@H](CCCNC(=N)N)C(=O)N[C@@H](CCCCN)C(=O)N[C@@H](CO)C(=O)N[C@@H](C)C(=O)N[C@H](C(=O)N[C@@H](CCCCN)C(N)=O)[C@@H](C)CC` [P2pal-18S]: the “Agonist | (%)^‡” value at PAR2 is given as 3%. Further, on PAR4, the “Antagonist activity, neutrophil chemotaxis, PAR4” value was “no antagonist activity”. Also, at PAR1 [2], the “Inhibition of PAR1 calcium flux” value was “did not inhibit”.
